The term Vd denotes the apparent volume that relates the amount in the body to the concentration in plasma or blood. Lower therefore signals little distribution into tissue. In general, clearance refers to a measure of how efficiently the substance is removed, as volume per time. A higher clearance goes with a high capacity for elimination. Usually half-life stands for how long it takes for the measured level to halve. High values mean slow decline, low ones rapid decline. As a reminder, the AUC is concentration integrated over time.

Each structure is given as a SMILES string. Where “and” joins values, the source holds several entries; their conditions need not be identical. Equal entries are not always repeated. Where two headings read alike, the source gives them in different places.

Data set [1] can be described thus: clinical. As to conditions: human, in vivo, iv.
For data set [2] the following is noted: IV infusion 10 mg; cited from earlier work.
The conditions of data set [3]: 2 compartment model, cited from earlier work.
Data set [4] in a line: clinical. The settings on record: human, in vivo, iv; for half-life: Selected Parameter Value.
For data set [5] the following is noted: cited from earlier work; for Conc (plasma concentration): 200 mg intravenously, subject 68 kg; for Alpha / A: individual subjects W.
Data set [6] can be described thus: Published cocaine pharmacokinetics in humans, IV bolus: parameters and PCT profile (Barnett et al. 1981).
Data set [7] can be described thus: clinical. As to conditions: human, in vivo, po, 500 mg.
For data set [8] the following is noted: human, in vivo, po, 500 mg.
The conditions of data set [9]: Oral 500 mg; cited from earlier work.
For data set [10] the following is noted: in vivo, iv, 20 mg/kg.
The nature of the next data set: in vivo. The settings on record: non-human primates, iv, 20 mg/kg.
[11] abbreviates: IV Infusion, 4 mg for 5 minutes.
[12] abbreviates: 200 mg IV, two compartment model.
The mark [13] stands for this setting: IV bolus, Dose = 100 mg, X, Y, listed as Cocain.
Where [14] appears, read: IV bolus, Dose = 200 mg, Z, listed as Cocain.
Where [15] appears, read: IVBolus 200 mg, bi-exponential model (Table 6).

In “clinical [1]”, `CC(C)NCC(O)COc1ccc(CCOCC2CC2)cc1` (stereo not drawn) [Betaxolol] gave a Vd of 5.81 L/kg and a clearance of 300 mL/min. In data set [2], the “AUC, Mean Value” was 610 ng·h/mL; the “CL, Mean Value” is 15.1 L/h; the “Lambda_Z, Mean Value” is 0.0415 h⁻¹; the “Vz, Mean Value” was 5.07 L/kg.

With `OC(CCN1CCCCC1)(c1ccccc1)C1CC2C=CC1C2` (stereo not drawn) [Biperiden], in data set [3] (setting [11]), the “AUC, Value” is 62.8 ng·h/mL; the “CL, Value” is 24 mL/min/kg; the “K12, Value” is 0.1910 h⁻¹; the “K21, Value” was 0.06 h⁻¹. In data set [3] (setting [11]), the “T1/2 Alpha, Value” is 1.5 h; the “T1/2 beta, Value” was 24.3 h; the “V1, Value” was 2.6 L/kg. Besides, in data set [3] (Oral 4 mg), the “Ka, Value” is 2.18 h⁻¹. The molecule also gave a clearance in “clinical [4]” of 24.8 mL/min/kg. The half-life in “clinical [4]” (T1/2 Alpha) is 1.7 h. In “clinical [4]” (T1/2 beta), the half-life is 28.2 h.

Take `COC(=O)[C@H]1[C@@H](OC(=O)c2ccccc2)C[C@@H]2CC[C@H]1N2C` [Cocaine]: the “A, Published parameter value” in data set [5] (setting [12]) was 2.482 µg/mL. Further, in data set [5] (setting [12]), the “Alpha, Published parameter value” was 3.192 h⁻¹. Also, the “B, Published parameter value” in data set [5] (setting [12]) is 1.997 µg/mL. Besides, the “Beta, Published parameter value” in data set [5] (setting [12]) was 0.505 h⁻¹. Further, the “Conc (plasma concentration)” value was 3868 ng/mL in data set [5] (Time 0.08333333 hr); 2476 ng/mL in [5] (Time 0.33333333 hr); 2031 ng/mL in [5] (Time 0.65 hr); 1222 ng/mL in data set [5] (Time 1 hr); 696 ng/mL in [5] (Time 2.13333333 hr); 453 ng/mL in data set [5] (Time 3.2 hr). For the same molecule, the figures for the “Conc (plasma concentration)” value in data set [5] (Time 4.16666667 hr), in [5] (Time 5.15 hr) and in data set [5] (Time 6.15 hr) were 219 ng/mL, 145 ng/mL and 94 ng/mL, respectively. Moreover, the Alpha is 0.0135 min⁻¹ and 0.0172 min⁻¹ and 0.0147 min⁻¹ in [5] (IV bolus, Dose = 100 mg, X, Y); 0.0135 min⁻¹ and 0.0172 min⁻¹ and 0.0147 min⁻¹ in data set [5] (setting [13]); 0.0532 min⁻¹ and 0.00879 min⁻¹ in [5] (IV bolus, Dose = 200 mg, Z); 0.0532 min⁻¹ and 0.00879 min⁻¹ in [5] (setting [14]). For the same molecule, the A in data set [5] (setting [13]) was 860 ng/mL and 558 ng/mL and 1139 ng/mL; in data set [5] (setting [14]), 2482 ng/mL and 1432 ng/mL. In addition, the B in [5] (IV bolus, Dose = 200 mg, Sub-W) was 1997 ng/mL. Also, in [5] (IV bolus, Dose = 200 mg, Sub-W), the Beta is 0.00842 min⁻¹. Further, the “A, Value” in data set [5] (setting [15]) is 2482 ng/mL. Moreover, the “Alpha, Value” in [5] (setting [15]) was 0.05 min⁻¹. The “B, Value” in data set [5] (setting [15]) is 1997 ng/mL. For the same molecule, the Cmax result in data set [5] (IVBolus 200 mg) is recorded as “(Cmax = 3868) ng/ml”. Also, in data set [6] (maximum over all subjects and doses 100, 200 mg (Rule 7)), the “Alpha, Selected Value” was 0.0532 min⁻¹. The “Beta, Selected Value” in [6] (maximum over all subjects and doses (Rule 7)) came to 0.00842 min⁻¹.

In the data set “clinical [7]”, `CC[C@H]1OC(=O)[C@H](C)[C@@H](O[C@H]2C[C@@](C)(OC)[C@@H](O)[C@H](C)O2)[C@H](C)[C@@H](O[C@@H]2O[C@H](C)C[C@H](N(C)C)[C@H]2O)[C@](C)(O)C[C@@H](C)CN(C)[C@H](C)[C@@H](O)[C@]1(C)O` [Azithromycin] had an AUC of 6380 ng·h/mL and a half-life of 76.2 h. Further, in [8], the “CL, Selected Parameter Value” came out at 280.35 mL/min; the “Vd beta, Selected Parameter Value” amounted to 5475.92 L; the “Vss, Selected Parameter Value” was 4218.4 L. In addition, in data set [9], the “AUC, Maximum” value is 6380 ng·h/mL; the “AUC, Mean Value” is 4860 ng·h/mL; the “AUC, Minimum” value is 3500 ng·h/mL; the “CL, Mean Value” is 664.84 mL/min. Besides, in data set [9], the “K10, Maximum” value is 0.12 h⁻¹; the “K10, Mean Value” was 0.08 h⁻¹; the “K10, Minimum” value was 0.05 h⁻¹; the “K12, Maximum” value was 0.18 h⁻¹. Moreover, in data set [9], the “K12, Mean Value” is 0.12 h⁻¹; the “K12, Minimum” value is 0.07 h⁻¹; the “K21, Maximum” value is 0.06 h⁻¹; the “K21, Mean Value” is 0.04 h⁻¹. Moreover, in [9], the “K21, Minimum” value is 0.03 h⁻¹; the “Ke, Maximum” value was 0.02 h⁻¹; the “Ke, Mean Value” was 0.02 h⁻¹; the “Ke, Minimum” value was 0.02 h⁻¹. Moreover, in [9], the “T1/2 beta, Mean Value” was 55.46 h; the “V1, Maximum” value is 1025.35 L; the “V1, Mean Value” was 586.83 L; the “V1, Minimum” value is given as 341.94 L. In [9], the “V2, Maximum” value is given as 3193.05 L; the “V2, Mean Value” was 1779.12 L; the “V2, Minimum” value is reported as 798.71 L; the “Vd beta, Mean Value” is reported as 3219.51 L. Also, in [9], the “Vss, Maximum” value is listed as 4218.4 L; the “Vss, Mean Value” is on record as 2347.95 L; the “Vss, Minimum” value is recorded as 1018.78 L.

As to `COc1cc(NCc2ccc3nc(N)nc(N)c3c2C)cc(OC)c1OC` [Trimetrexate], in data set [10] (non-human primate), the “K10, Converted value” was 3.096 h⁻¹ and the “K10, Selected Parameter Value” amounted to 0.0516 min⁻¹. In addition, in [10] (non-human primates), the “K12, Converted value” came out at 0.87 h⁻¹; the “K12, Selected Parameter Value” came out at 0.0145 min⁻¹; the “K13, Converted value” was 0.0075 h⁻¹; the “K13, Selected Parameter Value” was 0.000125 min⁻¹. In data set [10] (non-human primates), the “K21, Converted value” came to 1.296 h⁻¹; the “K21, Selected Parameter Value” worked out at 0.0216 min⁻¹; the “K31, Converted value” turned out to be 0.093 h⁻¹; the “K31, Selected Parameter Value” is 0.00155 min⁻¹. Also, in data set [10] (non-human primates), the “V1, Converted value” came out at 0.15 L/kg; the “V1, Selected Parameter Value” came to 0.15 L/kg; the “V2, Converted value” is 0.079 L/kg; the “V2, Selected Parameter Value” was 0.079 L/kg. For the same molecule, the “cl, Converted value” in [10] (non-human primates) was determined as 0.252 L/h. This molecule came in with a clearance in “in vivo” of 4.2 mL/min. In “in vivo” (T1/2 alpha, Converted value), the half-life is 0.305 h. The same molecule came in with a half-life in “in vivo” (T1/2 alpha, Selected Parameter Value) of 0.305 h. The half-life in “in vivo” (T1/2 beta, Converted value) was 1.43 h. The half-life in the data set “in vivo” (T1/2 beta, Selected Parameter Value) was found to be 1.43 h.

(Values after patent US20250062039A1, “ESTIMATION OF PHARMACOKINETIC (PK) PARAMETERS OF DRUG CANDIDATES USING UNIVERSAL PK PARAMETERS BOUNDS” (Tata Consultancy Services Limited, priority 2023, published 2025).)
